As usually defined, the EC50 is the midpoint of the concentration-response curve. The Emax is the maximal effect, on the per cent scale that the assay sets. Broadly, the IC50 is the concentration that inhibits the measured activity by half. Lower therefore signals greater potency in that assay. One may read the kinetic solubility as solubility judged after dilution from a stock solution rather than from solid.

The results in this text go back to US20240409542A1, “NOVEL COMPOUNDS” (Sitryx Therapeutics Limited, priority 2021, published 2024).

≈ marks a conversion by molar mass, not a printed value. Marks after values point to notes of the source that are not given here.

Data set [1] concerns the target recombinant human PKM2 (Homo sapiens (Human), UniProt P14618). The experiment in a line: Human PKM2 activation assay (Kinase-Glo Plus luminescence). It is filed as biochemical. The note with it: for EC50: activation of recombinant human PKM2, 4-parameter logistic fit, read-out: hPKM2 EC50; for Emax: read-out: hPKM2 Emax (%). On the procedure: Compound activation of recombinant human PKM2 pyruvate kinase activity was determined by biochemical assay. N-terminal His-tagged hPKM2 was sourced from R&D Systems and its substrates phosphoenolpyruvate (PEP) and ADP from Sigma-Aldrich and 2BScientific Ltd, respectively. The Kinase-Glo® Plus luminescence assay was from Promega. All other reagents were from Sigma-Aldrich. Test Compounds were prepared as 10 mM DMSO stocks and dilution series prepared in DMSO for direct dilution into Assay Buffer comprising 50 mM imidazole, 50 mM KCl, 7 mM MgCl2, 0.01% Tween20, 0.05% BSA (pH 7.2).
Human PKM2 was diluted into Assay Buffer comprising 50 mM imidazole, 50 mM KCl, 7 mM MgCl2, 0.01% Tween20, 0.05% BSA (pH 7.2) to a final concentration of 5 pM. Enzyme-Assay Buffer mix was dispensed into a 384-well shallow-well white-walled plate (PerkinElmer) and Test Compounds added by acoustic dispense (Echo®, Labcyte Inc.).
After 60 minutes' incubation on an orbital shaker (300 rpm, 26° C.), enzyme activity was quantified by the luminescent detection of generated ATP. Kinase-Glo® Plus reagent was added to each well and the plates incubated for a further 15 minutes on an orbital shaker in the dark (300 rpm, 26° C.) before luminescence measurement on a plate reader (PHERAstar® FSX, BMG Labtech).
EC50 and Emax values were determined from 4-parameter logistic fits of compound concentration-response curves.

Data set [2] deals with A549 cells. The experiment in a line: A549 proliferation assay in low-serine medium (CellTiter-Glo). It is filed as cell-based. The note with it: Homo sapiens, 72 h, 3 days, low-serine medium (20 μM L-serine). On the procedure: The effect of compounds of Formula (I) on A549 cell proliferation in low-serine medium was assessed using a luminescence assay of viable cell number (CellTiter-Glo® 2.0, Promega) duplexed with a fluorescent cytotoxicity assessment (CellTox™ Green, Promega). Cell culture reagents were from ThermoFisher unless specified otherwise. Assay reagents were from Sigma-Aldrich unless specified otherwise. Test Compounds were prepared as 10 mM DMSO stocks and dilution series prepared in DMSO for direct dilution into culture medium.
Cells were passaged every 3-4 days at 80-90% confluence. The cell monolayer was washed twice with room-temperature Ca^2+/Mg-free PBS and 4 ml room-temperature trypsin-EDTA added to the flask. After 5 minutes' incubation (37° C., 5% CO2) to detach cells, trypsin was quenched with 13 ml warmed complete growth medium and the cells harvested and diluted to 2.4×10^4 cells/ml for dispensing into 384-well clear-bottom black-walled plates (600 cells/well).
Following overnight incubation, growth medium was aspirated from each well and the cells washed twice with Assay Medium comprising Basal Medium Eagle supplemented with 3% heat-inactivated dialysed FBS plus 2 mM L-glutamine plus 20 μM L-serine (Sigma-Aldrich). After aspiration of the final wash medium, Assay Medium containing Test Compound was added to each well. DMSO vehicle controls were included on each plate.
Cells were incubated for 3 days in a humidified incubator (37° C., 5% CO2) at which point CellTox™ Green and CellTiter-Glo® reagents were prepared according to the manufacturer's instructions. Triton-X was added to HIGH wells for cytotoxicity determination and the plate incubated for 30 minutes (20° C., ambient humidity and pCO2). CellTox™ Green reagent was added to each well and the plate covered, placed on an orbital shaker @450 rpm for 2 minutes, and incubated in the dark for 15 minutes (20° C., ambient humidity and pCO2). Endpoint fluorescence was measured using a plate reader (PHERAstar® FSX, BMG Labtech).
Following cytotoxicity determination, CellTiter-Glo® reagent was added to each well and the plate placed on an orbital shaker @450 rpm for 2 minutes to lyse cells. Plates were incubated in the dark for 15-30 minutes (20° C., ambient humidity and pCO2) prior to endpoint luminescence measurement (PHERAstar® FSX, BMG Labtech).
Proliferation was calculated by normalizing luminescence signals to LOW controls obtained from a parallel plate processed at the time of Test Compound challenge and HIGH (DMSO vehicle) wells from the compound plate. IC50 values were determined from a 4-parameter logistic fit of compound concentration-response curves.
(ATP-based viability assays read luminescence as a measure of living cells.)

The nature of data set [3]: Kinetic aqueous solubility. The settings on record: PBS pH 7.4, 200 μM (2% DMSO), RT; for solubility kinetic at 1.5 h: phosphate buffered saline (PBS) pH 7.4, pH 7.4, aqueous buffer, kinetic from dmso stock, Kinetic solubility (Ksol), (μg/ml).
Description: (§1) Phosphate buffered saline (PBS) pH 7.4 was prepared using PBS tablets as per the manufacturer's instructions. Compounds and marker stocks are prepared at 10 mM in DMSO.
(§2) Compounds were incubated at 200 μM (2% DMSO) in Millipore—MSS LB PC 10 or Porvair—ref: 36004 plates in the presence of the prepared PBS pH 7.4 solution for 1.5 h, at RT, with gentle shaking. […] The samples were then analysed in a 96 well UV Star analysis plate on a plate reader from 220 nm to 500 nm at 10 nm increments.
(§3) The concentration of the samples was calculated against the standard curves.
Data set [4] concerns the target recombinant human PKLR (Homo sapiens (Human), UniProt P30613). The experiment in a line: Human PKLR activation assay (Kinase-Glo Plus luminescence). The note with it: for Emax: read-out: hPKLR Emax (%).
Description: Compound activation of recombinant human PKLR pyruvate kinase activity was determined by biochemical assay. N-terminal His-tagged enzyme was sourced from R&D Systems and its substrates phosphoenolpyruvate (PEP) and ADP from Sigma-Aldrich and 2BScientific Ltd, respectively. The Kinase-Glo® Plus luminescence assay was from Promega. All other reagents were from Sigma-Aldrich. Test Compounds were prepared as 10 mM DMSO stocks and dilution series prepared in DMSO for direct dilution into Assay Buffer comprising 50 mM imidazole, 50 mM KCl, 7 mM MgCl2, 0.01% Tween20, 0.05% BSA (pH 7.2).
Human PKLR was diluted into Assay Buffer to a final concentration of 5 pM. Enzyme-Assay Buffer mix was dispensed into 384-well shallow-well white-walled plates and Test Compounds added by acoustic dispense (Echo®, Labcyte Inc).
For data set [5] the following is noted: pH 7.4.
Description: as §1, §2, §3

Sequence of recombinant human PKM2 (P14618 whole entry): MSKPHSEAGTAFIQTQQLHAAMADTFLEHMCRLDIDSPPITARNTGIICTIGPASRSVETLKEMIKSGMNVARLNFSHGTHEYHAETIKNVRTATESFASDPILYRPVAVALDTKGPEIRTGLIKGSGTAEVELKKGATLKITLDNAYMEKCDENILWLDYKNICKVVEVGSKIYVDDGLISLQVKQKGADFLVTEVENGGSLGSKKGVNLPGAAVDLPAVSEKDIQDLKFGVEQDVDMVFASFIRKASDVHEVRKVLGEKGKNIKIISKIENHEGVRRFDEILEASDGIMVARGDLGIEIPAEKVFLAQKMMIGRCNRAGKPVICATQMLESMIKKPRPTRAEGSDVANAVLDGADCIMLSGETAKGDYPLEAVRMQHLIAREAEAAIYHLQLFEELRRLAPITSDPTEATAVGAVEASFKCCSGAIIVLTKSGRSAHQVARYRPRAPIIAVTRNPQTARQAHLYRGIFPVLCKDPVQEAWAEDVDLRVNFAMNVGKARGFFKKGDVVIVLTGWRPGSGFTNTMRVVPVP
Sequence of recombinant human PKLR (P30613 whole entry): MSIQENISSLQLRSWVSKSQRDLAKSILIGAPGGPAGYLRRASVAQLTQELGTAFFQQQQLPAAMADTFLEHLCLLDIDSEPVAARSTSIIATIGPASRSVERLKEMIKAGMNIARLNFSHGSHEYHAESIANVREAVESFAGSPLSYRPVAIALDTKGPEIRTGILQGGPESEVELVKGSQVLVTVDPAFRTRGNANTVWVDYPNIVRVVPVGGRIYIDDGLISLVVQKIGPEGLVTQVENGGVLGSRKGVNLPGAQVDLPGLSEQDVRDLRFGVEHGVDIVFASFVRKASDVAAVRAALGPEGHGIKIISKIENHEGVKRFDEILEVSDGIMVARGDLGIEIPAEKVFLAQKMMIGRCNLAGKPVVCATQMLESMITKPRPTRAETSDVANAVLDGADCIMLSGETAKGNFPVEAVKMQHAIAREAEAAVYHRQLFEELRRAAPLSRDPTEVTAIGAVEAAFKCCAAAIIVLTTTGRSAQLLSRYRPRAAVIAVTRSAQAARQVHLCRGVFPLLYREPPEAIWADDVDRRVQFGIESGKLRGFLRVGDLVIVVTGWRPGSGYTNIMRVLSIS

`Cc1ncc(S(=O)(=O)N2CCc3c(n(C)c4c(=O)n(Cc5cccc(N)c5)ncc34)C2)s1` [Example 10, 3-(3-aminobenzyl)-5-methyl-7-((2-methylthiazol-5-yl)sulfonyl)-3,5,6,7,8,9-hexahydro-4H-pyrido[4′,3′:4,5]pyrrolo[2,3-d]pyridazin-4-one]: the EC50 in data set [1] was 4680 nM; in data set [4], more than 320 nM. In addition, the figures for the Emax in data set [1] and in data set [4] were 72% and 90 to 100%, respectively. For the same compound, 117 nM corresponded to half-maximal inhibition in data set [2] (IC50). This compound also showed a solubility (kinetic) at 1.5 h in data set [3] of 17.1 µg/mL (≈ 36.4 µM).
As for `Cn1c2c(c3cnn(Cc4ccc5c(c4)CCO5)c(=O)c31)CCN(S(C)(=O)=O)C2` [Example 1, 3-((2,3-dihydrobenzofuran-5-yl)methyl)-5-methyl-7-(methylsulfonyl)-3,5,6,7,8,9-hexahydro-4H-pyrido[4′,3′:4,5]pyrrolo[2,3-d]pyridazin-4-one], in data set [1], the EC50 stood at 180 nM and the Emax turned out to be 86.9%. For the same compound, it took 1.6 nM to reach half-maximal inhibition in data set [2] (IC50). In data set [3] (1.5 h), the “Kinetic solubility (Ksol); (μg/ml)” value is listed as 12.85* μg/ml. For the same compound, in data set [3], the solubility (kinetic) at 1.5 h turned out to be 13.9 µg/mL (≈ 33.5 µM). In data set [4], the half-maximal effective concentration (EC50) is 60 to 320 nM and the Emax lay in the range of 90 to 100%.
“(3-((1H-pyrrolo[2,3-c]pyridin-3-yl)methyl)-N-ethyl-5-methyl-4-oxo-5,6,8,9-tetrahydro-3H-pyrido[4′,3′:4,5]pyrrolo[2,3-d]pyridazine-7(4H)-sulfonamide [Example 30]”: the EC50 in data set [1] worked out at 83 nM. For the same compound, the “hPKM2 Emax (%)” value in data set [1] (percentage activation normalised to DMSO vehicle (LOW) and 5 μM TEPP-46 (HIGH)) is given as 62.2%. The “Kinetic solubility (Ksol);” value in data set [5] is 30.29 µg/mL.
On to `Cn1c2c(c3cnn(Cc4cccc(N)c4)c(=O)c31)CCN(S(C)(=O)=O)C2` [Example 7, 3-(3-aminobenzyl)-5-methyl-7-(methylsulfonyl)-3,5,6,7,8,9-hexahydro-4H-pyrido[4′,3′:4,5]pyrrolo[2,3-d]pyridazin-4-one], for which, in data set [1], the 50% effective concentration (EC50) was 346 nM and the Emax was 107%. The IC50 in data set [2] was found to be 0.9 nM. In data set [3], this compound returned a solubility (kinetic) at 1.5 h of 72.2 µg/mL (≈ 186 µM). For the same compound, in data set [4], the EC50 lay in the range of 60 to 320 nM and the maximal effect (Emax) lay within 100 to 117%.
Turning to `COc1cccc(Cn2ncc3c4c(n(C)c3c2=O)CN(S(C)(=O)=O)CC4)c1F` [Example 5, 3-(2-fluoro-3-methoxybenzyl)-5-methyl-7-(methylsulfonyl)-3,5,6,7,8,9-hexahydro-4H-pyrido[4′,3′:4,5]pyrrolo[2,3-d]pyridazin-4-one], in data set [1], the half-maximal effective concentration (EC50) was 591 nM and the maximal response (Emax) was found to be 96.7%. In data set [2], this compound had an IC50 of 13.3 nM. For the same compound, the solubility (kinetic) at 1.5 h in data set [3] is 5.13 µg/mL (≈ 12.2 µM). In data set [4], the EC50 is 60 to 320 nM and the Emax was less than 90%.
